Test results: patent US11890287B2, “Therapeutic compounds and compositions for treating social disorders and substance use disorders” (Kinoxis Therapeutics Pty Ltd, priority 2015, dated 2024)
Entries after “also recorded” stand apart in the source; their conditions may differ.

Key:
[1] = In vitro plasma stability assay; type: in vitro ADME; conditions: human, incubated at body temperature
[2] = test system: male Albino Wistar rats; test: Social preference test (caged conspecific vs toy rat); type: in vivo; conditions: 5 mg/kg IP
[3] = test system: Sprague Dawley rats; test: Acute toxicity, single intravenous bolus dose 1-30 mg/kg, one week dose range finding study; type: in vivo; conditions: for Hunched posture or gait- mild (incidence) / Number of abnormalities detected: (incidence) / Palpebral closure- mild/moderate (incidence) / Piloerection- mild (incidence) / Reduced activity- mild (incidence): n 3
Procedure: The acute toxicity of the SOC-1 test item was assessed in Sprague Dawley rats following intravenous administration of a single bolus dose. A total of four groups of n=3 adult female rats were treated with 1, 3, 10 and 30 mg/kg doses of SOC-1. The rats were then observed for 7 days prior to termination on Study Day 8 without necropsy.
The design of this acute single dose toxicity study in rats was adapted from OECD Guideline for Testing of Chemicals No. 420 Acute Oral Toxicity—Fixed Dose Procedure’ 2001 (2) and the test facility Standard Operating Procedure SP_T002 ‘Dose Range Finding Study in Rodents’. The study procedures were conducted as outlined below and according to related test facility Standard Operating Procedures.
Briefly, on completion of the acclimation period the study was commenced with administration of the treatment on Study Day 1. […] Body weights were also collected daily. On Study Day 8 the surviving animals were culled without necropsy.
The test item treatments were administered as a bolus intravenous injection in a dose volume of 2 mL/kg on Study Day 1 with restraint on conscious animals (with the exception of Group 4 where the treatment was administered in a dose volume of 6 mL/kg on lightly anaesthetised animals following the administration of isofluorane anaesthetic).
Morbidity and mortality observations were recorded daily during the acclimation period and on Day 8, and twice daily from Day 1 through Day 7.
Clinical observations were conducted at least once during the acclimation period. Clinical observations were conducted at least once daily from Day 1 up to and including the day prior to termination. On the day of treatment the animals were monitored continuously for the first 30 min post-treatment with formal observations made at 30 minutes, 1 hour and 4 hours post-treatment.
The clinical observations included examination of animals for changes in skin and fur, eyes and mucous membranes, respiratory and circulatory function, gait and posture, behaviour, tremors or convulsions and any other abnormal findings.
The clinical observations also included daily examination of the tail for any injection site reaction (for example, erythema or oedema).
Body weight was recorded once during the acclimation period and daily from the time of treatment on Day 1 to Day 8. The mean body weight values for study days 1-8 are shown as group mean±standard deviation (SD) in FIG. 14.

[4] = test system: rats; test: Non-social tests of anxiety (elevated plus maze, open field); type: in vivo, rat; conditions: acute dosing or residual long-term effect
[5] = biological target: T1, V1aR (Homo sapiens, UniProt P37288); test: IP1 signalling on V1aR HEK cells; type: cell-based
T1 construct: expressed in transfected cells; host or cells: HEK cells
T1 sequence (P37288 whole entry): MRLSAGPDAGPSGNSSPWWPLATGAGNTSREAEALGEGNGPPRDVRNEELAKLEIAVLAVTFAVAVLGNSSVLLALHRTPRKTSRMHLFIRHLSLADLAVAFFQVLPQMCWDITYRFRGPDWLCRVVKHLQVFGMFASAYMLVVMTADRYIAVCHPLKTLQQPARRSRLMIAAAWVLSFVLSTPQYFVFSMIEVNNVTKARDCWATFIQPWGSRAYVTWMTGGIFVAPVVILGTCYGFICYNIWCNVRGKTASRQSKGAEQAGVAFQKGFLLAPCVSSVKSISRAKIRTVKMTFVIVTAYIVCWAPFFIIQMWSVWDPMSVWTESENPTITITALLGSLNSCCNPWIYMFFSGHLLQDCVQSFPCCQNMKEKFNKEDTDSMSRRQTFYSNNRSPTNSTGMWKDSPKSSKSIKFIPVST

[6] = test system: BALB/C mice; test: Social preference test, BALB/C mouse model of autism spectrum disorders; type: in vivo; conditions: 5 mg/kg IP
Excerpt: BALB/C mice have autistic-like behaviours (including reduced interest in social stimuli) compared to standard C57BL/6 mice. In a social preference test, BALB/C mice show no preference for interacting with a social stimulus (a novel mouse) over an object stimulus (a novel object), whereas C57BL/6 mice show a robust preference.

[7] = biological target: V1B (Homo sapiens, UniProt P47901); test: Orthosteric binding, AVP receptors
V1B, sequence (P47901 whole entry): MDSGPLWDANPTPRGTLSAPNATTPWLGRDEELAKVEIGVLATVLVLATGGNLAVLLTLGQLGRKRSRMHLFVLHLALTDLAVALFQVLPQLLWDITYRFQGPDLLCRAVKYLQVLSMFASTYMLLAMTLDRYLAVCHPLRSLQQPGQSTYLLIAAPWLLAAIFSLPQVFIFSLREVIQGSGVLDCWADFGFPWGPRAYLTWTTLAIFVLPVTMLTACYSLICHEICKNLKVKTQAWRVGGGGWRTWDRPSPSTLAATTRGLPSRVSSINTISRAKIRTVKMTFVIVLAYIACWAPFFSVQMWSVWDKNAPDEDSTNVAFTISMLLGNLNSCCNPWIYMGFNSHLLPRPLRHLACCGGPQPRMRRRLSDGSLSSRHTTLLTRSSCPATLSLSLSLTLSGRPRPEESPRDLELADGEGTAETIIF

SMILES: Cl.Cn1ncc2c1Nc1ccccc1NC2 [SOC-1]
- half-life at 500 nM [1]: > 6 h
- preference for the live rat over a toy rat [2]: enhanced rats natural preference for an unfamiliar live rat; also recorded: significantly elevated preference for the live rat
- Hunched posture or gait- mild (incidence) ([3]; 1 mg/kg IV): 0
- Number of abnormalities detected: (incidence) ([3]; 1 mg/kg IV): 3
- Palpebral closure- mild/moderate (incidence) ([3]; 1 mg/kg IV): 0
- Piloerection- mild (incidence) ([3]; 1 mg/kg IV): 0
- Reduced activity- mild (incidence) ([3]; 1 mg/kg IV): 0
- Hunched posture or gait- mild (incidence) ([3]; 3 mg/kg IV): 0
- Number of abnormalities detected: (incidence) ([3]; 3 mg/kg IV): 3
- Palpebral closure- mild/moderate (incidence) ([3]; 3 mg/kg IV): 0
- Piloerection- mild (incidence) ([3]; 3 mg/kg IV): 0
- Reduced activity- mild (incidence) ([3]; 3 mg/kg IV): 0
- reaction at the time of dose administration ([3]; 10 mg/kg IV in 0.9% saline): exaggerated flinch reaction and vocalisation
- Hunched posture or gait- mild (incidence) ([3]; 10 mg/kg IV): 3
- Number of abnormalities detected: (incidence) ([3]; 10 mg/kg IV): 0
- Palpebral closure- mild/moderate (incidence) ([3]; 10 mg/kg IV): 0
- Piloerection- mild (incidence) ([3]; 10 mg/kg IV): 3
- Reduced activity- mild (incidence) ([3]; 10 mg/kg IV): 0
- Hunched posture or gait- mild (incidence) ([3]; 30 mg/kg IV): 0
- Number of abnormalities detected: (incidence) ([3]; 30 mg/kg IV): 0
- Palpebral closure- mild/moderate (incidence) ([3]; 30 mg/kg IV): 1
- Piloerection- mild (incidence) ([3]; 30 mg/kg IV): 3
- Reduced activity- mild (incidence) ([3]; 30 mg/kg IV): 2
- effect on body weight ([3]; 1, 3, 10 and 30 mg/kg IV): no effects of SOC-1 test item treatment on body weight
- injection site reactions ([3]; 1, 3, 10 and 30 mg/kg IV): no findings of injection site reactions
- morbidity and mortality ([3]; 1, 3, 10 and 30 mg/kg IV): no unscheduled deaths or findings of morbidity
- tolerability ([3]; 1, 3, 10 and 30 mg/kg IV): tolerated in this study at all dose levels
- clinical findings post-dose on Study Day 1 ([3]; 10 and 30 mg/kg IV): piloerection, hunched posture and gait and palpebral closure
- time to resolution of clinical findings post-dose ([3]; 10 and 30 mg/kg IV): 4 to 24 h
- Bodyweight, Mean ([3]; Group 1 (1 mg/kg IV), day 1): 208.233 g
- Bodyweight, Mean ([3]; Group 1 (1 mg/kg IV), day 2): 203.733 g
- Bodyweight, Mean ([3]; Group 1 (1 mg/kg IV), day 3): 204.933 g
- Bodyweight, Mean ([3]; Group 1 (1 mg/kg IV), day 4): 208.100 g
- Bodyweight, Mean ([3]; Group 1 (1 mg/kg IV), day 5): 210.467 g
- Bodyweight, Mean ([3]; Group 1 (1 mg/kg IV), day 6): 215.300 g
- Bodyweight, Mean ([3]; Group 1 (1 mg/kg IV), day 7): 209.833 g
- Bodyweight, Mean ([3]; Group 1 (1 mg/kg IV), day 8): 216.633 g
- Bodyweight, Mean ([3]; Group 2 (3 mg/kg IV), day 1): 196.867 g
- Bodyweight, Mean ([3]; Group 2 (3 mg/kg IV), day 2): 193.700 g
- Bodyweight, Mean ([3]; Group 2 (3 mg/kg IV), day 3): 198.733 g
- Bodyweight, Mean ([3]; Group 2 (3 mg/kg IV), day 4): 199.233 g
- Bodyweight, Mean ([3]; Group 2 (3 mg/kg IV), day 5): 201.200 g
- Bodyweight, Mean ([3]; Group 2 (3 mg/kg IV), day 6): 204.733 g
- Bodyweight, Mean ([3]; Group 2 (3 mg/kg IV), day 7): 201.967 g
- Bodyweight, Mean ([3]; Group 2 (3 mg/kg IV), day 8): 206.333 g
- Bodyweight, Mean ([3]; Group 3 (10 mg/kg IV), day 1): 205.933 g
- Bodyweight, Mean ([3]; Group 3 (10 mg/kg IV), day 2): 207.267 g
- Bodyweight, Mean ([3]; Group 3 (10 mg/kg IV), day 3): 214.533 g
- Bodyweight, Mean ([3]; Group 3 (10 mg/kg IV), day 4): 216.100 g
- Bodyweight, Mean ([3]; Group 3 (10 mg/kg IV), day 5): 211.733 g
- Bodyweight, Mean ([3]; Group 3 (10 mg/kg IV), day 6): 213.433 g
- Bodyweight, Mean ([3]; Group 3 (10 mg/kg IV), day 7): 219.000 g
- Bodyweight, Mean ([3]; Group 3 (10 mg/kg IV), day 8): 218.900 g
- Bodyweight, Mean ([3]; Group 4 (30 mg/kg IV), day 1): 206.833 g
- Bodyweight, Mean ([3]; Group 4 (30 mg/kg IV), day 2): 202.567 g
- Bodyweight, Mean ([3]; Group 4 (30 mg/kg IV), day 3): 210.967 g
- Bodyweight, Mean ([3]; Group 4 (30 mg/kg IV), day 4): 216.500 g
- Bodyweight, Mean ([3]; Group 4 (30 mg/kg IV), day 5): 209.667 g
- Bodyweight, Mean ([3]; Group 4 (30 mg/kg IV), day 6): 213.367 g
- Bodyweight, Mean ([3]; Group 4 (30 mg/kg IV), day 7): 222.300 g
- Bodyweight, Mean ([3]; Group 4 (30 mg/kg IV), day 8): 219.767 g
- acute tolerated dose ([3]; bolus intravenous injection, female rats): at least 30 mg/kg
- effect in non-social tests of anxiety [4]: without effect
- agonist or positive allosteric modulator activity at V1aR [5]: not an agonist or positive allosteric modulator of V1aRs
- antagonist activity at V1aR [5]: weak antagonist activity
- time spent investigating the object stimulus (a novel object) [6]: significantly increased the amount of time the BALB/C mice spent investigating the object stimulus
- time spent investigating the social stimulus (a novel mouse) [6]: significantly increased the amount of time BALB/C mice spent investigating the social stimulus
- affinity for the orthosteric binding site of V1B [7]: Nor does SOC-1 show any affinity
